# Source: patent US20140371262A1, “PREVENTIVE AND/OR THERAPEUTIC AGENT FOR THROMBOEMBOLISM IN THROMBOEMBOLISM PATIENT WITH SEVERE RENAL IMPAIRMENT” (Daiichi Sankyo Company, Limited, priority 2011, published 2014)
# Columns and labels:
# [1] = Clinical pharmacological trial: pharmacokinetics after single-dose edoxaban 15 mg in individuals with renal functional impairment; settings: for Cmax / half-life / Tmax: human, in vivo, 15 mg; for Cmax: Cmax Geometric least squares mean; for Cmax / half-life / Tmax / AUC0-24h Geometric least squares mean ratio to healthy adult / Cmax Geometric least squares mean ratio to healthy adult: single-dose 15 mg; for half-life: t1/2 Geometric least squares mean; for Tmax: tmax Least squares mean
# Experimental: Edoxaban was subjected to a clinical trial targeting individuals with renal functional impairment, in which edoxaban was studied for its pharmacokinetics in the individuals with renal functional impairment (Non-patent literature 4). In this clinical trial, 15 mg of edoxaban was administered at a single dose to each patient in five groups differing in the severity of renal functional impairment.
# NVAF patients = experiment: Late phase-II trial targeting NVAF patient in Japan (thromboembolic and bleeding events, 12 weeks); format: in vivo, human; settings: for Bleeding events, subjects with event/subjects / Incidence of bleeding events (major, clinically relevant non-major and minor bleeding in total): all subjects
# [2] = mild renal impairment (50 ≦ CLCR ≦ 80 mL/min)
# [3] = moderate renal impairment (30 ≦ CLCR < 50 mL/min)
# [4] = severe renal impairment (CLCR < 30 mL/min, nondialyzed)
# [5] = healthy adult (CLCR > 80 mL/min)
# [6] = individuals with severe renal impairment
# [7] = 30 mg×1/day, 12 weeks, 30 ≦ CLCR < 50 mL/min
# [8] = 30 mg×1/day, 12 weeks, 50 ≦ CLCR ≦ 80 mL/min
# [9] = 30 mg×1/day, 12 weeks, 80 < CLCR mL/min
# [10] = 45 mg×1/day, 12 weeks, 30 ≦ CLCR < 50 mL/min
# [11] = 45 mg×1/day, 12 weeks, 50 ≦ CLCR ≦ 80 mL/min
# [12] = 45 mg×1/day, 12 weeks, 80 < CLCR mL/min
# [13] = 60 mg×1/day, 12 weeks, 30 ≦ CLCR < 50 mL/min
# [14] = 60 mg×1/day, 12 weeks, 50 ≦ CLCR ≦ 80 mL/min
# [15] = 60 mg×1/day, 12 weeks, 80 < CLCR mL/min
# [16] = 60 mg×1/day, 12 weeks, CLCR < 30 mL/min
# [17] = each edoxaban group (30, 45, 60 mg) vs warfarin group
smiles,measurement,setting,value
"CN1CCc2nc(C(=O)N[C@@H]3C[C@@H](C(=O)N(C)C)CC[C@@H]3NC(=O)C(=O)Nc3ccc(Cl)cn3)sc2C1 [edoxaban, N^1-(5-chloropyridin-2-yl)-N^2-((1S,2R,4S)-4-[(dimethylamino)carbonyl]-2-{[(5-methyl-4,5,6,7-tetrahydrothiazolo[5,4-c]pyridin-2-yl)carbonyl]amino}cyclohexyl)ethanediamide]",Cmax,[1]; [2],104 ng/mL
same,Cmax,[1]; [3],113 ng/mL
same,Cmax,[1]; peritoneal dialysis patient,83.8 ng/mL
same,Cmax,[1]; [4],83.6 ng/mL
same,half-life,[1]; [5],8.6 h
same,half-life,[1]; [2],8.15 h
same,half-life,[1]; [3],9.44 h
same,half-life,[1]; peritoneal dialysis patient,12.2 h
same,half-life,[1]; [4],16.9 h
same,Tmax,[1]; [5],1.5 h
same,Tmax,[1]; [2],1.88 h
same,Tmax,[1]; [3],1.38 h
same,Tmax,[1]; peritoneal dialysis patient,2.37 h
same,Tmax,[1]; [4],1.7 h
same,Increase of C24 h compared with healthy adults,[1]; individuals with moderate renal impairment,2.52 times
same,Degree of the rise in C24 h relative to healthy adults,[1]; [6],approximately 3 times
same,Degree of the rise in C24 h relative to individuals with mild renal impairment,[1]; [6],approximately 2 times
same,AUC0-24h Geometric least squares mean ratio to healthy adult,[1]; [2],1.29
same,Cmax Geometric least squares mean ratio to healthy adult,[1]; [2],1.17
same,AUC0-24h Geometric least squares mean ratio to healthy adult,[1]; [3],1.65
same,Cmax Geometric least squares mean ratio to healthy adult,[1]; [3],1.27
same,AUC0-24h Geometric least squares mean ratio to healthy adult,[1]; peritoneal dialysis patient,1.75
same,Cmax Geometric least squares mean ratio to healthy adult,[1]; peritoneal dialysis patient,0.944
same,AUC0-24h Geometric least squares mean ratio to healthy adult,[1]; [4],1.50
same,Cmax Geometric least squares mean ratio to healthy adult,[1]; [4],0.941
same,"Bleeding event (major, clinically relevant non-major and minor in total), subjects with event/subjects",NVAF patients; [7],(3/15)
same,"Incidence of bleeding event (major, clinically relevant non-major and minor bleeding in total)",NVAF patients; [7],20.0%
same,Incidence of major bleeding or clinically relevant non-major bleeding,NVAF patients; [7],6.7%
same,"Major bleeding or clinically relevant non-major bleeding, subjects with event/subjects",NVAF patients; [7],(1/15)
same,"Bleeding event (major, clinically relevant non-major and minor in total), subjects with event/subjects",NVAF patients; [8],(14/69)
same,"Incidence of bleeding event (major, clinically relevant non-major and minor bleeding in total)",NVAF patients; [8],20.3%
same,Incidence of major bleeding or clinically relevant non-major bleeding,NVAF patients; [8],1.4%
same,"Major bleeding or clinically relevant non-major bleeding, subjects with event/subjects",NVAF patients; [8],(1/69)
same,"Bleeding event (major, clinically relevant non-major and minor in total), subjects with event/subjects",NVAF patients; [9],(7/46)
same,"Incidence of bleeding event (major, clinically relevant non-major and minor bleeding in total)",NVAF patients; [9],15.2%
same,Incidence of major bleeding or clinically relevant non-major bleeding,NVAF patients; [9],0%
same,"Major bleeding or clinically relevant non-major bleeding, subjects with event/subjects",NVAF patients; [9],(0/46)
same,"Bleeding event (major, clinically relevant non-major and minor in total), subjects with event/subjects",NVAF patients; [10],(6/21)
same,"Incidence of bleeding event (major, clinically relevant non-major and minor bleeding in total)",NVAF patients; [10],28.6%
same,Incidence of major bleeding or clinically relevant non-major bleeding,NVAF patients; [10],9.5%
same,"Major bleeding or clinically relevant non-major bleeding, subjects with event/subjects",NVAF patients; [10],(2/21)
same,"Bleeding event (major, clinically relevant non-major and minor in total), subjects with event/subjects",NVAF patients; [11],(19/72)
same,"Incidence of bleeding event (major, clinically relevant non-major and minor bleeding in total)",NVAF patients; [11],26.4%
same,Incidence of major bleeding or clinically relevant non-major bleeding,NVAF patients; [11],4.2%
same,"Major bleeding or clinically relevant non-major bleeding, subjects with event/subjects",NVAF patients; [11],(3/72)
same,"Bleeding event (major, clinically relevant non-major and minor in total), subjects with event/subjects",NVAF patients; [12],(5/41)
same,"Incidence of bleeding event (major, clinically relevant non-major and minor bleeding in total)",NVAF patients; [12],12.2%
same,Incidence of major bleeding or clinically relevant non-major bleeding,NVAF patients; [12],4.9%
same,"Major bleeding or clinically relevant non-major bleeding, subjects with event/subjects",NVAF patients; [12],(2/41)
same,"Bleeding event (major, clinically relevant non-major and minor in total), subjects with event/subjects",NVAF patients; [13],(4/15)
same,"Incidence of bleeding event (major, clinically relevant non-major and minor bleeding in total)",NVAF patients; [13],26.7%
same,Incidence of major bleeding or clinically relevant non-major bleeding,NVAF patients; [13],0%
same,"Major bleeding or clinically relevant non-major bleeding, subjects with event/subjects",NVAF patients; [13],(0/15)
same,"Bleeding event (major, clinically relevant non-major and minor in total), subjects with event/subjects",NVAF patients; [14],(21/68)
same,"Incidence of bleeding event (major, clinically relevant non-major and minor bleeding in total)",NVAF patients; [14],30.9%
same,Incidence of major bleeding or clinically relevant non-major bleeding,NVAF patients; [14],10.3%
same,"Major bleeding or clinically relevant non-major bleeding, subjects with event/subjects",NVAF patients; [14],(7/68)
same,"Bleeding event (major, clinically relevant non-major and minor in total), subjects with event/subjects",NVAF patients; [15],(10/46)
same,"Incidence of bleeding event (major, clinically relevant non-major and minor bleeding in total)",NVAF patients; [15],21.7%
same,Incidence of major bleeding or clinically relevant non-major bleeding,NVAF patients; [15],0%
same,"Major bleeding or clinically relevant non-major bleeding, subjects with event/subjects",NVAF patients; [15],(0/46)
same,"Bleeding event (major, clinically relevant non-major and minor in total), subjects with event/subjects",NVAF patients; [16],(1/1)
same,"Incidence of bleeding event (major, clinically relevant non-major and minor bleeding in total)",NVAF patients; [16],100.0%
same,Incidence of major bleeding or clinically relevant non-major bleeding,NVAF patients; [16],0%
same,"Major bleeding or clinically relevant non-major bleeding, subjects with event/subjects",NVAF patients; [16],(0/1)
same,Incidence of bleeding events compared with the warfarin group,NVAF patients; [17],No statistically significant difference
same,"Incidence of major bleeding, or of major bleeding or clinically relevant non-major bleeding, compared with the warfarin group",NVAF patients; [17],not statistically significantly different
same,"Bleeding events, subjects with event/subjects","NVAF patients; edoxaban 30 mg group, 12 weeks",24/130
same,"Incidence of bleeding events (major, clinically relevant non-major and minor bleeding in total)","NVAF patients; edoxaban 30 mg group, 12 weeks",18.5%
same,"Major bleeding, incidence","NVAF patients; edoxaban 45 mg group, 12 weeks",2.2%
same,"Major bleeding, number of subjects","NVAF patients; edoxaban 45 mg group, 12 weeks",3 subjects
same,"Bleeding events, subjects with event/subjects","NVAF patients; edoxaban 45 mg group, 12 weeks",30/134
same,"Incidence of bleeding events (major, clinically relevant non-major and minor bleeding in total)","NVAF patients; edoxaban 45 mg group, 12 weeks",22.4%
same,Thromboembolic events,"NVAF patients; edoxaban 45 mg group, 12 weeks, the only thromboembolic event of the trial",one cerebral infarction
same,"Major bleeding, incidence","NVAF patients; edoxaban 60 mg group, 12 weeks",1.5%
same,"Major bleeding, number of subjects","NVAF patients; edoxaban 60 mg group, 12 weeks",2 subjects
same,"Bleeding events, subjects with event/subjects","NVAF patients; edoxaban 60 mg group, 12 weeks",36/130
same,"Incidence of bleeding events (major, clinically relevant non-major and minor bleeding in total)","NVAF patients; edoxaban 60 mg group, 12 weeks",27.7%
